Calls of active or inactive are those of the source. No cut-off for these calls is given here.
Legend:
[1] = Selectivity index, ratio of IC50 for inhibition of PDE1C2 (147 to 531 residues) (unknown origin) using 3H-cGMP as substrate to IC50 for inhibition of PDE5A (535 to 860 residues) (unknown origin) using 3H-cGMP as substrate
[2] = MRT in Sprague-Dawley rat at 2.5 mg/kg,iv administration; assay type: ADME, organism-based; settings: in vivo
[3] = biological target: cAMP and cAMP-inhibited cGMP 3',5'-cyclic phosphodiesterase 10A (Homo sapiens, UniProt Q9Y233); assay: Inhibition of PDE10A (449 to 770 residues) (unknown origin) using 3H-cAMP as substrate
Sequence of cAMP and cAMP-inhibited cGMP 3',5'-cyclic phosphodiesterase 10A (Q9Y233 whole entry, the tested form may be a part): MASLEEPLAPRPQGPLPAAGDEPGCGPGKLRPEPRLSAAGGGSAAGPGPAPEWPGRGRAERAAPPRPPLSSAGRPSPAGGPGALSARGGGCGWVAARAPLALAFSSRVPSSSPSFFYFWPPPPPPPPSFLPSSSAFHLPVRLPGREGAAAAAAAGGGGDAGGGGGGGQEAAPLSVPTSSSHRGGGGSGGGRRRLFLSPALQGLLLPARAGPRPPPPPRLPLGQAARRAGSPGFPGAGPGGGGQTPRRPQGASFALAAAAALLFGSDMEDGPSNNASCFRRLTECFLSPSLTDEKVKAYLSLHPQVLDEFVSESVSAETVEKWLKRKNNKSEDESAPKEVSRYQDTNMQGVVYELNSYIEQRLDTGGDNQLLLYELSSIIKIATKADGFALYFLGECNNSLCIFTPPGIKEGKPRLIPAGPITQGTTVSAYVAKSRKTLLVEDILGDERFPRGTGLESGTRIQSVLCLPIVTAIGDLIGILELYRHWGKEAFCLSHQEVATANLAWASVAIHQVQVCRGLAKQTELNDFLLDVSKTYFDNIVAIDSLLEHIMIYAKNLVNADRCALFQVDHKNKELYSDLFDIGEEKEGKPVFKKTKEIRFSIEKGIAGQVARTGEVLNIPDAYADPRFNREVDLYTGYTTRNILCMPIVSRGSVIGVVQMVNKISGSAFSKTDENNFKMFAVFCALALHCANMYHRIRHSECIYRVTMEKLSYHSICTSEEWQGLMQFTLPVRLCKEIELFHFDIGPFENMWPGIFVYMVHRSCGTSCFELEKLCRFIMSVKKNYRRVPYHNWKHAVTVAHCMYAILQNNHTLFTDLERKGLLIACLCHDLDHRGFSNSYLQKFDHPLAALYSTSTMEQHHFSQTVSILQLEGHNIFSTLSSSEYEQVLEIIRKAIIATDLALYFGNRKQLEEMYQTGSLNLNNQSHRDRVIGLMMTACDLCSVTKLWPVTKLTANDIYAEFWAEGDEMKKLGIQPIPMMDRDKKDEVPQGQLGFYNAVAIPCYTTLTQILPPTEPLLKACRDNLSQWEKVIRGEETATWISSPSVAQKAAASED

[4] = Selectivity index, ratio of IC50 for inhibition of PDE1C2 (147 to 531 residues) (unknown origin) using 3H-cGMP as substrate to IC50 for inhibition of PDE3A (679 to 1087 residues) (unknown origin) using 3H-cAMP as substrate
[5] = biological target: T1, cGMP-inhibited 3',5'-cyclic phosphodiesterase 3A (Homo sapiens, UniProt Q14432); assay: Inhibition of PDE3A (679 to 1087 residues) (unknown origin) using 3H-cAMP as substrate at 5000 nM relative to control
T1 sequence (Q14432 whole entry, the tested form may be a part): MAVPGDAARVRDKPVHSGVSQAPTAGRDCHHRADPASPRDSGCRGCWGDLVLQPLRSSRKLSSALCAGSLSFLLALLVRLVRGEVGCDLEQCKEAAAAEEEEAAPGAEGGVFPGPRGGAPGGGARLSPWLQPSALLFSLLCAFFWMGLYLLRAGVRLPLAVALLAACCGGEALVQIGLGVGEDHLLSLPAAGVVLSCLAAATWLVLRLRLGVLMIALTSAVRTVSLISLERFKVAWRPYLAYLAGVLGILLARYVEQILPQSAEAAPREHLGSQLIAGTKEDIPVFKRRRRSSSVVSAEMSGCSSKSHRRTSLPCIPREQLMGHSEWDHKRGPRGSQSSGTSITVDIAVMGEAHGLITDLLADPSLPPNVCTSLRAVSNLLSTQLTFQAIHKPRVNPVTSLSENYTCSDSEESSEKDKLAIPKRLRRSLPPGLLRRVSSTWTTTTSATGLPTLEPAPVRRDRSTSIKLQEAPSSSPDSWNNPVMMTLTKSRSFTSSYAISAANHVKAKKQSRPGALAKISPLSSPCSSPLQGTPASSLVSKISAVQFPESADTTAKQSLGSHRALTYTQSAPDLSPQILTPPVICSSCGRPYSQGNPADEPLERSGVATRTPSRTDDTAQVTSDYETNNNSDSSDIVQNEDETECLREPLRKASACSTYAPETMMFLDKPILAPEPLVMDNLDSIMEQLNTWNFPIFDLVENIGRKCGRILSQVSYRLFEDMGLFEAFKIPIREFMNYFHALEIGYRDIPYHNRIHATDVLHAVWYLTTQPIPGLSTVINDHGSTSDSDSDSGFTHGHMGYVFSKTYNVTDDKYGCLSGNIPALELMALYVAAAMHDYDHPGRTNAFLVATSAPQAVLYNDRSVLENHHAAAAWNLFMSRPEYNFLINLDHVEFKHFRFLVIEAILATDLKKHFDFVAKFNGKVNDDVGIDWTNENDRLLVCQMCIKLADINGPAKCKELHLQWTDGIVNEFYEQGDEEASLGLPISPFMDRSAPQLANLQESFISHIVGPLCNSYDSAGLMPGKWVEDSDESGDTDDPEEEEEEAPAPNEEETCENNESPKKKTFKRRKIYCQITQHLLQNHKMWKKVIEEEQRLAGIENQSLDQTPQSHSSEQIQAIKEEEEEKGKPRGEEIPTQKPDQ

[6] = biological target: T1, cGMP-inhibited 3',5'-cyclic phosphodiesterase 3A; assay: Inhibition of PDE3A (679 to 1087 residues) (unknown origin) using 3H-cAMP as substrate
[7] = biological target: High affinity cAMP-specific and IBMX-insensitive 3',5'-cyclic phosphodiesterase 8A (Homo sapiens, UniProt O60658); assay: Inhibition of PDE8A (480 to 820 residues) (unknown origin) using 3H-cAMP as substrate
Sequence of High affinity cAMP-specific and IBMX-insensitive 3',5'-cyclic phosphodiesterase 8A (O60658 whole entry, the tested form may be a part): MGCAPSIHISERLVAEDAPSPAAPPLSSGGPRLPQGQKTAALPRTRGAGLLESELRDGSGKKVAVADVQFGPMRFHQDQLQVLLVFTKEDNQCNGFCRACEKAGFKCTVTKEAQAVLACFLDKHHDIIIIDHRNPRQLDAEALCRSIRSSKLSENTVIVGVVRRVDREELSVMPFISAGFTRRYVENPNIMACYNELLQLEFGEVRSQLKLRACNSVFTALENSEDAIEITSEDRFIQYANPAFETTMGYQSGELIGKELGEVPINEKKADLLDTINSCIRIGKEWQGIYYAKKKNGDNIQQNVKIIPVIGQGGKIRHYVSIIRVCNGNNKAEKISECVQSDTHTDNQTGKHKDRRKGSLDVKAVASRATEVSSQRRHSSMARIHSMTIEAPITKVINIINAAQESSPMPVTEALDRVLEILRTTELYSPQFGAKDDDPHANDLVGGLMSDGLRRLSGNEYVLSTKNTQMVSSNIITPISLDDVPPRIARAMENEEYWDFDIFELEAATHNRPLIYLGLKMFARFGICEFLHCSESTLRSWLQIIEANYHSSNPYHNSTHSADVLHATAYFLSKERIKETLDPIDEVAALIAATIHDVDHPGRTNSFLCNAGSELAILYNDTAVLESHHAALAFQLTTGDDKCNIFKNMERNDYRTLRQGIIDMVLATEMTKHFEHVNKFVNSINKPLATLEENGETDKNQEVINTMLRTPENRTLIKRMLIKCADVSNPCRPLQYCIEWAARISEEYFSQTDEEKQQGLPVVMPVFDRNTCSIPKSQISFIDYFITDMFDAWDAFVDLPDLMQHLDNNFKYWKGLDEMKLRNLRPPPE

[8] = biological target: T2, Cytochrome P450 1A2 (Homo sapiens, UniProt P05177); assay: Inhibition of CYP1A2 in human liver microsomes in presence of NADPH; assay type: ADME, Microsome
T2 sequence (P05177 whole entry): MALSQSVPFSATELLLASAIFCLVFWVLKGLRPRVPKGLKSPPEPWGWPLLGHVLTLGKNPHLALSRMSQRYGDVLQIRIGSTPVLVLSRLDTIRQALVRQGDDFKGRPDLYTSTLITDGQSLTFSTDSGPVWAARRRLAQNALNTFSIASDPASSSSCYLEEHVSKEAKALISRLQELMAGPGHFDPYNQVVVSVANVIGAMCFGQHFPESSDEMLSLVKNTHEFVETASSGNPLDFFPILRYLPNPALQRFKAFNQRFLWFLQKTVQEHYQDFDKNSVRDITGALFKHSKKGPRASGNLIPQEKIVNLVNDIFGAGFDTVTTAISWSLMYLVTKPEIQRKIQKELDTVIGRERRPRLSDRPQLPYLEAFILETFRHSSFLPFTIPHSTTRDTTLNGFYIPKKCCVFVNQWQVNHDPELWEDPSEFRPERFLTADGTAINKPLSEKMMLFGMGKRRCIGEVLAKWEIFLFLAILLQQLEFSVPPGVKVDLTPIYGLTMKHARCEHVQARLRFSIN

[9] = biological target: Cytochrome P450 2D6 (Homo sapiens, UniProt P10635); assay: Inhibition of CYP2D6 in human liver microsomes in presence of NADPH; assay type: ADME, Microsome
Sequence of Cytochrome P450 2D6 (P10635 whole entry): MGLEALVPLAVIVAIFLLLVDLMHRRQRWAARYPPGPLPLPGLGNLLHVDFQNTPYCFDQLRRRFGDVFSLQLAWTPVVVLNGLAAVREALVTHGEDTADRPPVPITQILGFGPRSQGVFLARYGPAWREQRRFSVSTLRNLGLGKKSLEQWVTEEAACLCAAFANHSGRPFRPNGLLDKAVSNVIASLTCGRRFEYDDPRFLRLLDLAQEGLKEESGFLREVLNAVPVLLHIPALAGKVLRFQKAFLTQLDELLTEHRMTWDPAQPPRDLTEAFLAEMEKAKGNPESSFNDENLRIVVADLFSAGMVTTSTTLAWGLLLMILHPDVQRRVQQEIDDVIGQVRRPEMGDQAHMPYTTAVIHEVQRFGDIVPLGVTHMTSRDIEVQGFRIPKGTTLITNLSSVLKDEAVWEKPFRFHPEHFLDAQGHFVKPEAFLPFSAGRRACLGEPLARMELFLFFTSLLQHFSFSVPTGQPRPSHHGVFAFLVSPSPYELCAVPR

[10] = test system: LX-2; assay: Antifibrotic activity against TGF-beta induced human LX-2 cell activation assessed as downregulation of fibronectin expression incubated for 48 hrs by Western blotting analysis; assay type: functional, cell-based
[11] = test system: LX-2; assay: Antifibrotic activity against TGF-beta induced human LX-2 cell activation assessed as reduction in cell proliferation at 2.5 to 10 uM incubated for 48 hrs by Edu staining based analysis; assay type: functional; settings: dose 2.5-10 µM
[12] = biological target: Dual specificity calcium/calmodulin-dependent 3',5'-cyclic nucleotide phosphodiesterase 1C (Homo sapiens, UniProt Q14123); assay: Inhibition of PDE1C2 (147 to 531 residues) (unknown origin) using 3H-cGMP as substrate incubated for 15 mins by liquid scintillation counter analysis
Sequence of Dual specificity calcium/calmodulin-dependent 3',5'-cyclic nucleotide phosphodiesterase 1C (Q14123 whole entry, the tested form may be a part): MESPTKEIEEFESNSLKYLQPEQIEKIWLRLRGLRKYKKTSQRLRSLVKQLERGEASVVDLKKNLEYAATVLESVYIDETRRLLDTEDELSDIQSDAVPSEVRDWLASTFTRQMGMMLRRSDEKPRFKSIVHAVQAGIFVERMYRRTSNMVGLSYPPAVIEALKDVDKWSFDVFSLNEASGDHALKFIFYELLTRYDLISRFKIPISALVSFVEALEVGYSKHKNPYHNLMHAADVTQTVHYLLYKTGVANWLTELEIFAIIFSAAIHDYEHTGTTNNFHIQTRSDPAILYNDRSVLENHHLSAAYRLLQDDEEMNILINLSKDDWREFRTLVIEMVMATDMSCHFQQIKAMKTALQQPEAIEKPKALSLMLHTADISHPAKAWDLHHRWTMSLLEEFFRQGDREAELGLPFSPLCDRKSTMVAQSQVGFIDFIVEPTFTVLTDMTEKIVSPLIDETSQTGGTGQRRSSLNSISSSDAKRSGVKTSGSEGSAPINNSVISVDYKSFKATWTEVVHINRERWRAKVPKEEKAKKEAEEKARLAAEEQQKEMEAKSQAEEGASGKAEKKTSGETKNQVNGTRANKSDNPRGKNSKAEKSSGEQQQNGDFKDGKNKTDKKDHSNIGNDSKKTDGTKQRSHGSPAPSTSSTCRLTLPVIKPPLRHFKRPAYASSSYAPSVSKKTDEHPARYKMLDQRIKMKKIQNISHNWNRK

[13] = test system: Rattus norvegicus; assay: Antifibrotic activity against bile duct ligation induced Sprague-Dawley rat liver fibrosis model assessed as reduction in ALT level at 2.5 mg/kg,ip administrated once daily for 21 days; assay type: functional, organism-based; settings: time 21.0 day
[14] = biological target: High affinity 3',5'-cyclic-AMP phosphodiesterase 7A (Homo sapiens, UniProt Q13946); assay: Inhibition of PDE7A (130 to 482 residues) (unknown origin) using 3H-cAMP as substrate
Sequence of High affinity 3',5'-cyclic-AMP phosphodiesterase 7A (Q13946 whole entry, the tested form may be a part): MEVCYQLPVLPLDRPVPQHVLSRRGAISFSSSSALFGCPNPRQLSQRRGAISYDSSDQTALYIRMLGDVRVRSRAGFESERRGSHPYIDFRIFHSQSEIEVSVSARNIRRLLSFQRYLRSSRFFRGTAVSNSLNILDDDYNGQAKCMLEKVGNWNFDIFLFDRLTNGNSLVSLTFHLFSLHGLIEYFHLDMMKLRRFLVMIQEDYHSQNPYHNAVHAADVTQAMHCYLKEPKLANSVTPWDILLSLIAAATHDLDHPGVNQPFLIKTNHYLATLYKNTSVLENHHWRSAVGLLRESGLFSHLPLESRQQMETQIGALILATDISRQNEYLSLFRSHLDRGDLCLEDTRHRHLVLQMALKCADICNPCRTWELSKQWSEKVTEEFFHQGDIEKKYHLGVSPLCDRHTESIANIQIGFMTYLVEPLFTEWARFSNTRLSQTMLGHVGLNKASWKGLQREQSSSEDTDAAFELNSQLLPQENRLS

CC1=C(C(=O)OCC2CCCCC2)C(c2ccc(OC(F)F)c(OCC3CC3)c2)N(C(=O)SCc2ccccc2)C(=O)N1 (centres undefined)
Ratio IC50 [1]: 168
MRT [2]: 1.77 h
IC50 [3]: 597 nM
Ratio IC50 [4]: > 500
inhibition [5]: < 50%
IC50 [6]: > 5000 nM
IC50 [7]: 1760 nM
IC50 [8]: > 25000 nM
IC50 [9]: > 25000 nM
Activity [10]: Dose-Dependent Effect
Activity [11]: Active
IC50 [12]: 10 nM
Activity [13]: Active
IC50 [14]: > 5000 nM
